Assay results from US11597721B2, “Heterocyclic compounds comprising pyridine useful as modulators of IL-12, IL-23 and/or IFNα responses” (BRISTOL-MYERS SQUIBB COMPANY, priority 2018, dated 2023).
pIC50: −log10 of the molar value. Like-named read-outs stand apart in the source and are kept apart here.

System: IFNα-Induced STAT Phosphorylation
Assay: IFNα-Induced STAT Phosphorylation in Human Whole Blood
Format: cell-based
Conditions: 1 h compound incubation, 1000 U/mL recombinant human IFNα A/D for 15 min, pSTAT5 in CD3 positive population, read-out: LE Human WB IFNα-Induced Stat Phosph. (IC50)
Excerpt: IFNα-Induced STAT Phosphorylation in Human Whole Blood
The amount of pSTAT5 expression was quantitated by median fluorescence intensity after gating on the CD3 positive population.

SMILES	pIC50	pIC50 (Homo sapiens)
[2H]C([2H])([2H])NC(=O)c1nnc(Nc2ccccn2)cc1Nc1nccc(-c2ncn(C)n2)c1OC [Example 2, 4-{[3-methoxy-4-(1-methyl-1H-1,2,4-triazol-3-yl)pyridin-2-yl]amino}-N—(^2H3)methyl-6-[(pyridin-2-yl)amino]pyridazine-3-carboxamide]	7.30	
[2H]C([2H])([2H])NC(=O)c1nnc(Nc2cc(C#N)ccn2)cc1Nc1nccc(-c2ncn(C)n2)c1OC [Example 13, 6-[(4-cyanopyridin-2-yl)amino]-4-{[3-methoxy-4-(1-methyl-1H-1,2,4-triazol-3-yl)pyridin-2-yl]amino}-N—(^2H3)methylpyridazine-3-carboxamide]		< 5.00
[2H]C([2H])([2H])NC(=O)c1nnc(Nc2cc(C)c(F)cn2)cc1Nc1nccc(-c2ncn(C)n2)c1OC [Example 16, 6-[(5-fluoro-4-methylpyridin-2-yl)amino]-4-{[3-methoxy-4-(1-methyl-1H-1,2,4-triazol-3-yl)pyridin-2-yl]amino}-N—(^2H3)methylpyridazine-3-carboxamide]		6.92
[2H]C([2H])([2H])NC(=O)c1nnc(Nc2cc(CC)ccn2)cc1Nc1nccc(-c2ncn(C)n2)c1OC [Example 17, 6-[(4-ethylpyridin-2-yl)amino]-4-{[3-methoxy-4-(1-methyl-1H-1,2,4-triazol-3-yl)pyridin-2-yl]amino}-N—(^2H3)methylpyridazine-3-carboxamide]		7.30
[2H]C([2H])([2H])NC(=O)c1nnc(Nc2cc(F)ccn2)cc1Nc1nccc(-c2ncn(C)n2)c1OC [Example 19, 6-[(4-fluoropyridin-2-yl)amino]-4-{[3-methoxy-4-(1-methyl-1H-1,2,4-triazol-3-yl)pyridin-2-yl]amino}-N—(^2H3)methylpyridazine-3-carboxamide]		7.52
[2H]C([2H])([2H])NC(=O)c1nnc(Nc2nnc(C)s2)cc1Nc1nccc(-c2ncn(C)n2)c1OC [Example 20, 4-{[3-methoxy-4-(1-methyl-1H-1,2,4-triazol-3-yl)pyridin-2-yl]amino}-N—(^2H3)methyl-6-[(5-methyl-1,3,4-thiadiazol-2-yl)amino]pyridazine-3-carboxamide]		5.82
[2H]C([2H])([2H])NC(=O)c1nnc(Nc2cc(Cl)ccn2)cc1Nc1nccc(-c2ncn(C)n2)c1OC [Example 21, 6-[(4-chloropyridin-2-yl)amino]-4-{[3-methoxy-4-(1-methyl-1H-1,2,4-triazol-3-yl)pyridin-2-yl]amino}-N—(^2H3)methylpyridazine-3-carboxamide]		7.52

The next lines start with the values.

pIC50	pIC50 (Homo sapiens)	SMILES
	7.52	[2H]C([2H])([2H])NC(=O)c1nnc(Nc2ccc(-n3ccccc3=O)cn2)cc1Nc1nccc(-c2ncn(C)n2)c1OC [Example 24, 4-{[3-methoxy-4-(1-methyl-1H-1,2,4-triazol-3-yl)pyridin-2-yl]amino}-N—(^2H3)methyl-6-({2-oxo-2H-[1,3′-bipyridine]-6′-yl}amino)pyridazine-3-carboxamide]
	7.30	[2H]C([2H])([2H])NC(=O)c1nnc(Nc2cc(C(C)(C)O)ccn2)cc1Nc1nccc(-c2ncn(C)n2)c1OC [Example 25, 6-{[4-(2-hydroxypropan-2-yl)pyridin-2-yl]amino}-4-{[3-methoxy-4-(1-methyl-1H-1,2,4-triazol-3-yl)pyridin-2-yl]amino}-N—(^2H3)methylpyridazine-3-carboxamide]
	7.52	[2H]C([2H])([2H])NC(=O)c1nnc(Nc2ccc(-n3cccc(C(F)(F)F)c3=O)cn2)cc1Nc1nccc(-c2ncn(C)n2)c1OC [Example 26, 4-{[3-methoxy-4-(1-methyl-1H-1,2,4-triazol-3-yl)pyridin-2-yl]amino}-N—(^2H3)methyl-6-{[2-oxo-3-(trifluoromethyl)-2H-[1,3′-bipyridine]-6-yl]amino}pyridazine-3-carboxamide]
6.57		[2H]C([2H])([2H])NC(=O)c1nnc(Nc2ccccn2)cc1Nc1nccc(-c2ncn(C)n2)c1OC [Example 28]
